Measured values from patent publication US8865901B2, “Gain-of-function Bcl-2 inhibitors” (priority 2009, dated 2014).
pEC50, pIC50: −log10 of the molar value. Like-named read-outs stand apart in the source and are kept apart here.

Legend:
[1] = test system: TAMH cells overexpressing Bcl-xL (TAMH-Bcl-xL, Tabx2s); experiment: Cytotoxicity / apoptosis induction in TAMH cells overexpressing Bcl-xL; type: cell-based; details: for Neo/Bcl-xL: selectivity ratio
Experimental: (§1) To examine the sensitivity of cells over-expressing Bcl-xL to various mitochondrial inhibitors and apoptosis inducers, cell lines over-expressing Bcl-xL were prepared and tested according to Hockenberry et al. U.S. Pat. No. 7,241,804, hereby incorporated by reference in its entirety. Competitive binding of compounds with fluorescent antimycin A3, and competitive binding of compounds with BH3 peptide and Bcl-2. Competitive binding of compounds with BH-3 peptide were also measured using Bcl-xL as previously described. Id.
(§2) Cell lines were grown in RPMI 1640 medium (Gibco, Grand Island, N.Y.) supplemented with 5% fetal bovine serum (Hyclone, Logan, Utah). Also shown is the ratio of TAMH cells expressing Bcl-xL to those expressing A142L (WT:142L). The assay measures the potency of various compounds with respect to inducing apoptosis in these cells.
(§3) The compounds described in Example 2 were tested for their ability to inhibit Bcl-2 gain-of-function in TAMH cells, TAMH cells overexpressing […] (TAMH-Bcl-xL), TAMH cells transfected with Neo vector (Neo), TAMH cells over expressing a variant of Bcl-xL (A142L) using the methods of Example 1. 3-6.
(§4) The effects of the compounds described in Example 8 on TAMH cells, TAMH cells overexpressing Bcl-xL (TAMH-Bcl-xL), TAMH cells transfected with Neo vector (Neo), TAMH cells over expressing a variant of Bcl-xL (A142L) is shown in Table 8
(§5) The effects of the compounds described in Example 10 on TAMH cells, TAMH cells overexpressing Bcl-xL (TAMH-Bcl-xL), TAMH cells transfected with Neo vector (Neo), TAMH cells over expressing a variant of Bcl-xL (A142L) is shown in the following Table 10

[2] = test system: TAMH cells transfected with Neo vector (Neo); experiment: Cytotoxicity / apoptosis induction in TAMH cells transfected with Neo vector; type: cell-based; details: for pIC50: read-out: IC50 TAMH Neo
Experimental: as §1, §2, §3, §4, §5

[3] = Table 5, TAMH cells overexpressing Bcl-xL (Tabx2s), read-out: 2S EC50
[4] = Table 5, TAMH Neo cells, read-out: Neo EC50
[5] = Table 3, TAMH cells overexpressing Bcl-xL (Tabx2s), read-out: 2S EC50
[6] = Table 3, TAMH Neo cells, read-out: Neo EC50
[7] = Table 10, read-out: IC50 TAMH Bcl-XL
[8] = Table 13, read-out: IC50 TAMH Bcl-xL

For `Cc1cccc(Cc2ccc(Cc3cccc(C)c3)c(O)c2)c1` [Compound 0051], the pEC50 [1, 3] was 5.82, the pEC50 [2, 4] was 4.81 and the “Log P” value (Log P; Table 5) was 6.18.
With `COc1ccc(Cl)cc1Cc1cc(Cl)cc(Cc2cc(Cl)ccc2O)c1OC` [Compound 0088] the pEC50 [1, 3] was 6.22, the pEC50 [2, 4] was 5.21 and the “Log P” value (Log P; Table 5) was 7.4.
For `CC(=O)Oc1ccc(C)cc1Cc1cc(C)cc(Cc2cc(C)ccc2OC(C)=O)c1OC(C)=O` [Compound 0098], the pEC50 [1, 3] was 5.80, the pEC50 [2, 4] was 4.98 and the “Log P” value (Log P; Table 5) was 7.45.
In the case of `Cc1ccc(OC(=O)C(C)C)c(Cc2cc(C)cc(Cc3cc(C)ccc3OC(=O)C(C)C)c2O)c1` [Compound 0127], the pEC50 [1, 3] was 5.49 and the “Log P” value (Log P; Table 5) was 8.31.
Molecule `CC(C)(C)c1ccc(Cc2ccc(Cl)cc2Cl)cc1` [Compound 0149] has a pEC50 ([1]; Mus musculus, Table 6, TAMH cells overexpressing Bcl-xL (Tabx2s), read-out: 2S EC50) of 5.96, a pEC50 ([2]; Mus musculus, Table 6, TAMH Neo cells, read-out: Neo EC50) of 5.04 and a logP (Log P) of 6.28.
With `CC(C)(C)c1ccc(Cc2ccc(Oc3ccccc3)cc2O)cc1` [Compound 0155] the pEC50 [1, 3] was 5.72, the pEC50 [2, 4] was 4.92 and the “Log P” value (Log P; Table 5) was 7.24.
With `Oc1ccc(Cl)cc1/C=N/Nc1ccccn1` [Compound 0229] the pEC50 [1, 5] was 5.62, the pEC50 [2, 6] was no more than 4.30 and the “Log P” value (Log P; Table 3) was 2.570.
With `Oc1ccc(Cl)cc1/C=N/Nc1ccc(C(F)(F)F)cn1` [Compound 0231] the pEC50 [1, 5] was 5.68, the pEC50 [2, 6] was no more than 4.30 and the “Log P” value (Log P; Table 3) was 3.560.
With `Oc1c(Cl)cc(Cl)cc1/C=N/Nc1ccccn1` [Compound 0233] the pEC50 [1, 5] was 5.46, the pEC50 [2, 6] was no more than 4.30 and the “Log P” value (Log P; Table 3) was 3.190.
In the case of `Oc1ccc(Br)cc1/C=N/Nc1ccccn1` [Compound 0241], the pEC50 [1, 5] was 6.70, the pEC50 [2, 6] was no more than 4.30 and the “Log P” value (Log P; Table 3) was 2.740.
With `Oc1c(Br)cc(Br)cc1/C=N/Nc1ccccn1` [Compound 0245] the pEC50 [1, 5] was 5.48, the pEC50 [2, 6] was no more than 4.30 and the “Log P” value (Log P; Table 3) was 3.540.
In the case of `Oc1c(Br)cc(Cl)cc1/C=N/Nc1ccc(C(F)(F)F)cn1` [Compound 0275], the pEC50 [1, 5] was 5.85, the pEC50 [2, 6] was 5.00 and the “Log P” value (Log P; Table 3) was 4.980.
In the case of `O=C(/N=C/c1cc(Br)cc(Br)c1O)c1ccccc1` [Compound 0347], the pEC50 ([1]; Table 6, TAMH cells overexpressing Bcl-xL (Tabx2s), read-out: 2S EC50) was 6.30, the pEC50 ([2]; Table 6, TAMH Neo cells, read-out: Neo EC50) was 5.24 and the “Log P” value (Log P; Table 6) was 4.250.
With `CC(C)(C)c1cc(O)c(/C=N/Nc2ccccn2)cc1Br` [Compound 0353] the pEC50 [1, 5] was 5.89, the pEC50 [2, 6] was 5.00 and the “Log P” value (Log P; Table 3) was 4.810.
With `COc1c(Cl)cc(/C=N/Nc2ccccn2)c(O)c1Br` [Compound 0355] the pEC50 [1, 5] was 5.80, the pEC50 [2, 6] was 4.48 and the “Log P” value (Log P; Table 3) was 3.820.
In the case of `[O-][S+](c1cc(Cl)ccc1O)c1cc(Cl)ccc1O` [Compound 24019], the “Fold Select. (Neo/Bcl-XL)” value ([1]; Table 10) was 5.7, the pIC50 [1, 7] was 5.25 and the pIC50 ([2]; Table 10) was 4.49.
In the case of `CC(C)c1ccc(Sc2ccc(C(C)C)cc2O)c(O)c1` [Compound 39635], the “Fold Select. (Neo/Bcl-XL)” value ([1]; Table 10) was 1.3, the pIC50 [1, 7] was 5.37 and the pIC50 ([2]; Table 10) was 5.11.
For `Oc1c(Cl)cc(Cl)cc1Sc1cc(Cl)cc(Cl)c1O` [Compound 47129], the “Fold Select. (Neo/Bcl-XL)” value ([1]; Table 10) was 4.6, the pIC50 [1, 7] was 6.30 and the pIC50 ([2]; Table 10) was 5.64.
`Cc1cc(C)c(O)c(CNCc2ccccc2)c1` [Compound 47911] gave a pEC50 ([1]; Mus musculus, TAMH, Table 8, read-out: TAMH Bcl-xL) of 5.39, a pEC50 ([1]; Mus musculus, TAMH, Table 20, read-out: Bcl-XL) of 5.39 and a Neo/Bcl-xL ([1]; Table 8) of 7.8. For the same molecule, the Neo/Bcl-XL ([1]; Table 20) was 7.8, the pEC50 ([2]; Mus musculus, TAMH, Table 8, read-out: TANH Neo) was 4.50 and the pEC50 ([2]; Mus musculus, TAMH, Table 20, read-out: Neo) was 4.50.
In the case of `Oc1ccc(Cl)cc1Cc1cc(Cl)cc(Cc2cc(Cl)ccc2O)c1O` [Compound 47932], the pEC50 ([1]; Table 8, read-out: TAMH Bcl-xL) was 6.30, the Neo/Bcl-xL ([1]; Table 8) was 7 and the “Fold Select. (Neo/Bcl-xL)” value ([1]; Table 13) was 7. It also gave a pIC50 [1, 8] of 6.30, a pEC50 ([2]; Table 8, read-out: TANH Neo) of 5.46 and a pIC50 ([2]; Table 13) of 5.46.
With `Cc1cc(C)c(O)c(Cc2cc(Cl)cc(Cc3cc(C)cc(C)c3O)c2O)c1` [Compound 48167] the “Fold Select. (Neo/Bcl-xL)” value ([1]; Table 13) was 4, the pIC50 [1, 8] was 5.85 and the pIC50 ([2]; Table 13) was 5.25.
